Reference: US8895502B2, “β2-glycoprotein I peptide inhibitors” (Kansas State University Research Foundation, priority 2010, dated 2014)
Entries after “also recorded” stand apart in the source; their conditions may differ. Ends that are not written are not given here.

What was measured:
[1] = system: thioglycollate-elicited macrophages, IL-6; experiment: β2-GPI stimulated macrophage IL-6 production; format: cell-based; conditions: mouse β2-GPI 10 μg/mL, peptide 40 μM, 18 hours
Protocol: C57Bl/6 mice were injected i.p. with 1 mL thioglycollate (4%) 4 days prior to peritoneal lavage. Peritoneal exudate macrophages or the B cell line, LK35.2, were seeded at 2×10^6 cells/mL in 24-well or 96-well plates. After macrophage adherence, both cell types were treated with mouse β2-GPI (10 μg/mL) with or without peptide (40 μM). Additional cells were unstimulated as a negative control or stimulated with 10 μg/mL LPS (E. coli 055B5) as a positive control. Supernatants were collected 18-20 hours after stimulation and analyzed for nitrite by Griess reagent (Hoffman & Fleming, Cell Biochem. Funct. 28:686-694 (2010)) or IL-6 by Milliplex MAP kit (Millipore) following the manufacturer's instructions using a Luminex 200 with xPONENT 3.1 and Analyst software (Millipore).

[2] = system: C57Bl/6 mice; experiment: Hemorrhage-induced intestinal damage and inflammation; format: in vivo, mouse; conditions: 40 uM peptide after blood loss, 2 hours post-hemorrhage
Protocol: After a 1-week acclimatization period, mice were anesthetized using […]. Mice undergoing hemorrhage were subjected to retro-orbital removal of 30% of the calculated blood volume (approximately 0.5 mL) over a 90-second period (Fleming, S. D. et al., J. Surg. Res. 150:196-203 (2008); Hylton, D. J. et al., Shock 34:467-474 (2010); Hylton, D. J. et al., Shock 35: 134-140 (2011)). Volume of blood to be removed was based on animal weight and ranged from […] (body weight in grams×0.025). The determined blood volume was measured in water and marked on both the collection tubes and the capillary tubing used for retro-orbital punctures. This ensured that the correct amount would be withdrawn. A single retro-orbital puncture was sufficient for blood collection. The 2 hour mortality rate was less than 1%. Sham mice were subjected to similar procedures with no blood removal. Mice were randomly assigned to receive 40 uM peptide (80 ng/mouse) in a volume of 80-150 μL, or an equal volume of normal saline. To prevent spontaneous complement activation, all studies were performed in the absence of heparin. At 2 hours post-hemorrhage, mice were euthanized and tissues collected for analysis. Intestinal tissues were formalin fixed for analysis of injury and frozen sections were obtained for immunohistochemistry. […]

| Substance | β2-GPI induced IL-6 production [1] | hemorrhage-induced inflammation (PGE2 and IL-6 production) [2] | hemorrhage-induced intestinal damage [2] |
| --- | --- | --- | --- |
| H-KKCSYTVEAHCRDGTIEIPSCFKEHS-OH (cysteine pairing not given here) [peptide 305, 10] | attenuated | – | – |
| H-IHFYSKNKEKKSSYTVEAHSRDGTI-OH [peptide 296Cys-Ser] | – | significantly lower; also recorded: inhibit | significantly lower; also recorded: inhibit |
